Experimental data from patent US20180207228A1, “PEPTIDE COMBINATIONS AND USES THEREOF FOR TREATING GRASS ALLERGY” (ALK-Abelló A/S, priority 2015, published 2018).
“Also recorded” adds a separate entry of the source. Blank lines part the entries; values can stand above or below the compound they belong to. Where no end group is shown, it is not given here.

Experiments:
[1] = system: grass allergic donor derived T cell lines (TCL-02 DK-2); assay: Cross-reactivity of homologue peptides, proliferation on TCL02-DK2 (Study XR1); assay type: cell-based, human; conditions: for experimental cross-reactivity: 2 μg/ml, TCL02-DK2, 21 donors
Method: To measure the experimental cross-reactivity the proliferation assay of Example 3 was carried out on 21 grass allergic donors (TCL02-DK2). […] Cross-reactivity to Phleum pratense peptides with either close (Lolium perenne (Lol p)) or distant (Phalaris aquatica (Pha a), Cynodon dactylon (Cyn d)) species was experimentally investigated.
For analysing the cross-reactivity data, it was investigated if a donor responds to both native and homologue peptide, XY correlation plots were made where the donor responses to native peptides were plotted versus the donor responses to homologues. […] If less than five donors were responding to the parent peptides, then the data was considered to be in-conclusive, and were thus labelled with “-”. For some of the peptides the analysis was further supported by performing a Spearman r-Non Parametric test (data not shown).
Further the magnitude of T cell response from a parent peptide as defined herein and homologue response were plotted in a XY plot by using GraphPad Prism 6.
To measure the experimental cross-reactivity, the proliferation assay of Example 3 was carried out on 21 grass pollen allergic donors (TCL02-DK2, Study XR1) and 20 grass pollen allergic donors (TCL03−DK1+DK2, Study XR2). […] In Study XR1, Cross-reactivity to Phleum pratense peptides with either close (Lolium perenne-Lol p) or distant ([…]-Pha a, Cynodon dactylon-Cyn d) species was experimentally investigated. In Study XR1, 67 homologue peptides corresponding to 41 native Phleum pratense peptides were investigated together with the 41 Phleum pratense peptides at a concentration of 2 μg/ml. Similarly, study XR2 was carried out on 20 grass pollen allergic donors where donor derived TCL-03 lines were used to investigate Phleum pratense cross-reactivity to Poa pratensis (Poa p), Dactylis glomerata (Dac g), Festuca pratensis (Fes p), Paspalum notatum (Pas n), Sorghum halepense (Sor h), Lolium perenne (Lol p), Phalaris aquatica (Pha a) and Cynodon dactylon (Cyn d).

[2] = Peptide solubility by visual inspection; assay type: physicochemical; conditions: for Visual inspection after 60 min pH 7 / Visual inspection after centrifugation pH 7: 250 mM D-Mannitol and 25 mM sodium phosphate
Method: Water (pH 3-5) • 2. 250 mM D-Mannitol and 25 mM sodium acetate, pH 4.5 • 3. 250 mM D-Mannitol and 25 mM sodium phosphate, pH 7.0 • 4. […] Water (pH 3-5) • 2. 250 mM D-Mannitol and 25 mM sodium acetate, pH 4.5 • 3. 250 mM D-Mannitol and 25 mM sodium phosphate, pH 7.0 • 4. […] A subset of the peptides was selected as candidate peptides for a final peptide mixture. […] During the solubility studies the peptide-containing solutions were inspected visually before and after filtration for turbidity, and presence of particles/aggregates. In addition, presence of turbidity/particles/aggregates was also detected by optical density (OD) or absorbance of filtered material, but might also be detected by size-exclusion chromatography. Furthermore, Sub-visual particles may also be detected by dynamic light scattering (DLS) analysis on filtered and non-filtered peptide containing solutions. Samples were furthermore subjected to centrifugation to allow for the possible visual inspection of pelleted material.

[3] = system: grass pollen allergic donor derived TCL-03 lines; assay: Extended cross-reactivity study, proliferation on TCL03 DK1+DK2 (Study XR2), scoring; assay type: cell-based, human; conditions: study XR2; for Cross-reactivity score, Cyn d: homologue from Cyn d; for Cross-reactivity score, Dac g: homologue from Dac g; for Cross-reactivity score, Fes p: homologue from Fes p; for Cross-reactivity score, Lol p: homologue from Lol p; for Cross-reactivity score, Pha a: homologue from Pha a; for Cross-reactivity score, Poa p: homologue from Poa p; for Cross-reactivity sum: scores of all species added; for Cross-reactivity/species: sum divided by the number of species measured
[4] = Extended solubility and short term stability study (visual, U-HPLC recovery, DLS, 90LS, UV-VIS, sum of scores); conditions: for solubility: pH 4.5
Method: For that purpose, the peptides were provided as acetate salts (produced by Innovagen® at a >10 mg scale of manufacturing). To take into account batch-to-batch variations, some peptides were tested from other batches of the manufacturer Innovagen®, as well as from another manufacturer (Almac) and from in-house production. Solubility experiments were performed on peptide in solution in concentrations ranging from 0.5 mg/mL to 3 mg/mL (dry matter)—with the following solvents: • Water • Acetate buffer, pH 4.5 (25 mM sodium acetate containing 250 mM D-Mannitol) • Phosphate buffer, pH 7.0 (25 mM sodium phosphate containing 250 mM D-Mannitol) • Glycine buffer, pH 8.5 (25 mM glycine containing 250 mM D-Mannitol)
The solubility of the peptides was initially investigated by visual inspection and U-HPLC recovery. Visual inspection included assessment of turbidity and presence of particles/aggregates of each peptide solution before and after centrifugation as well as visual inspection of pelleted material. The visual inspection were reported as “clear solution”, “very small precipitation only visible with a magnifier”, “precipitation visible/turbid solution” or “more precipitation/turbid solution”. Filtration of peptide solutions were conducted using syringe based filters containing a polyethersulfone (PES) membrane chemistry and a pore size of 0.2 μm. The amount of the peptide in the supernatant of a filtered sample was determined using U-HPLC with reverse phase chromatography and recovery were determined as described in Example 5.
Peptide solutions were investigated at a time point of 1 hour after production, but were also repeated at later time point (e.g. 24. 48 or 96 hours) to investigate the stability of the peptides.
Peptide solutions were investigated to determine the presence of turbidity/particles/aggregates by use of optical density (OD) and change in UV-VIS absorbance at a wavelength of 320 nm, of the filtrate. […] In addition or as an alternative, the amount of the peptide in the supernatant of a filtered sample was determined using U-HPLC as described above, with the exception that the recovery was determined by dividing the peak area of the filtered sample in relation to the peak area in the original solution prior to filtration. See also Example 5 for further details regarding UV-VIS, and recovery measured by U-HPLC.
The peptides were scored in relation to the outcome of the above mentioned tests: For each peptide in a given buffer and at a given concentration, a sum of test scores was calculated and the sum used to rank the peptides according to solubility: • 1. […] DLS peak 1 number 3 nm gave a score of 1, 3-10 nm gave a score of 2, 10-100 nm gave a score of 3, >100 nm gave a score of 4. • 5. 90LS at 400 nm: Intensity <450 gave a score of 1, <800 gave a score of 2, >800 gave a score of 3. • 6. UV-VIS change in absorbance at 320 nm within 24 hours: 0.01 gave a score of 1, ≤0.05 gave a score of 2, 0.0.2 gave a score of 3 and >0.2 gave a score of 4.

[5] = system: allergen specific T cells; assay: T cell proliferation assay (72 h) on donor derived T cell lines (TCL02/TCL03); assay type: cell-based, human
Summary of the method: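 Overlapping 20-mer and selected 15-mer grass allergen peptides were screened for proliferation using TCL02 (day 24) or TCL03 (day 34) lines. Lines came from grass-allergic donors' CD8-depleted PBMCs, primed with natural allergen mix and expanded with irradiated autologous or allogeneic APCs, PHA-P 0.5 μg/ml and rIL-2.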

[6] = system: grass pollen allergic donor derived T cell lines; assay: Dose response titration in T cell proliferation assay; assay type: cell-based, human
Method: The dose-response relationship was tested by measuring the percentage of donor response (i.e. the percentage of donor coverage) in concentrations of 2.0, 0.1, 0.005 and 0.00025 μg/ml for the peptide combinations and in concentrations of 2.0, 0.2, 0.02 and 0.002 μg/ml for single peptides. The donor response was determined using T cell proliferation data as described in Example 3.
Relative magnitude value for a peptide or a peptide combination was calculated as percentage of highest T cell response to an allergen or a mix, by the same donor. In this way, allergen or peptide combination with highest magnitude of T cell response gets a value of 100 and T cell response magnitude of remaining peptides/peptide combinations are normalized or calculated relative to 100, for example Relative magnitude=100*(T cell response magnitude of peptide or combination/Highest T cell response in a donor). Relative magnitude were calculated mainly on Phl p 1. For donors non reactive to Phl p 1, Phl p 5 was used as reference
The donors were selected by seeking to maximize the HLA class II diversity in the donor cohort.
For peptide combinations, two set-ups were used:
A) Concentrations of 2.0, 0.1, 0.005 and 0.00025 μg/ml were tested on a set of T cell lines derived from 9 grass pollen allergic donors (same experiment as the data shown in FIG. 7b.).
B) Concentrations of 2.0, 0.066, 0.0022 and 0.00007 μg/ml were used on a set of T cell lines derived from 18 grass pollen allergic donors (same set as the donors used for testing of single peptides as described above).
Relative magnitude value for a peptide or a peptide combination was calculated as percentage of highest T cell response to an allergen or a mix, by the same donor. In this way, allergen or peptide combination with highest magnitude of T cell response gets a value of 100 and T cell response magnitude of remaining peptides/peptide combinations are normalized or calculated relative to 100, for example Relative magnitude=100*(T cell response magnitude of peptide or combination/Highest T cell response in a donor). […]

[7] = 3 mg/mL, acetate salt, non-filtered
[8] = 3 mg/mL, acetate salt, non-filtered, after centrifugation

Compound: GFKAALAAAAGVPPADKYRT-OH [peptide 230]
experimental cross-reactivity [1]: showed cross-reactivity

Compound: AYRTAATAANAAPAN-OH [compound 353]
Cross-reactivity score ([1]; homologue of peptide 241 (Phl p 5), Table 51, based on results from Study XR1 (score 5 upgraded to 7)): 7
cross-reactivity of homologue ([1]; homologues of peptide 241, Study XR1): very high cross-reactivity

Compound: EAKYDAYVATLSEALRIIAG-OH [peptide 233]
experimental cross-reactivity [1]: showed cross-reactivity; also recorded: good cross reactivity

Compound: GRGSGSSFEIKSTKPEASSG-OH [compound 202]
experimental cross-reactivity [1]: showed cross-reactivity

solubility, 1st round of solubility screening [2]: soluble
solubility in all the test samples (concentrations and pH tested), all solubility tests [4]: good solubility
solubility in aqueous solutions and short-term stability [4]: sufficiently soluble
solubility [4]: acceptable solubility
Compound: YHFDLSGHAFGAMAKKGDEQ-OH [peptide 205]
experimental cross-reactivity [1]: showed cross-reactivity
Cross-reactivity score, Cyn d ([3]; score 0 to 7): 2
Cross-reactivity score, Dac g ([3]; score 0 to 7): 7
Cross-reactivity score, Fes p ([3]; score 0 to 7): 7
Cross-reactivity score, Lol p ([3]; score 0 to 7): 7
Cross-reactivity score, Pha a ([3]; score 0 to 7): 6
Cross-reactivity score, Poa p ([3]; score 0 to 7): 3
Cross-reactivity score, Sor h ([3]; homologue from Sor h, score 0 to 7): 7
Cross-reactivity sum [3]: 39
Cross-reactivity/species [3]: 5

solubility, 1st round of solubility screening [2]: soluble
Visual inspection after 60 min pH 4.5 ([2]; 3 mg/mL, acetate salt, non-filtered, 250 mM D-Mannitol and 25 mM sodium acetate, pH 4.5): + particles
Visual inspection after centrifugation pH 4.5 ([2]; 3 mg/mL, acetate salt, non-filtered, 250 mM D-Mannitol and 25 mM sodium acetate, pH 4.5, after centrifugation): Ok
Visual inspection after 60 min pH 7 [2, 7]: particles +
Visual inspection after centrifugation pH 7 [2, 8]: ++
solubility in all the test samples (concentrations and pH tested), all solubility tests [4]: good solubility
solubility in aqueous solutions and short-term stability [4]: sufficiently soluble
solubility [4]: acceptable solubility
Compound: GSDPKKLVLNIKYTRPGDSL-OH [peptide 217]
experimental cross-reactivity [1]: showed cross-reactivity
Cross-reactivity score, Dac g ([3]; score 0 to 7): 1
Cross-reactivity score, Lol p ([3]; score 0 to 7): 5
Cross-reactivity sum [3]: 6
Cross-reactivity/species [3]: 3

Compound: CC[C@H](C)[C@H](NC(=O)[C@@H](NC(=O)[C@H](CC(=O)O)NC(=O)[C@H](CCC(=O)O)NC(=O)[C@H](C)NC(=O)[C@H](CCC(=O)O)NC(=O)[C@@H](N)[C@@H](C)O)C(C)C)C(=O)N1CCC[C@H]1C(=O)N[C@@H](CCC(=O)O)C(=O)NCC(=O)N[C@@H](Cc1c[nH]c2ccccc12)C(=O)N[C@@H](CCCCN)C(=O)N[C@@H](C)C(=O)N[C@@H](CC(=O)O)C(=O)N[C@H](C(=O)N[C@@H](CO)C(=O)N[C@@H](Cc1ccc(O)cc1)C(=O)N[C@@H](CCC(=O)O)C(=O)N[C@@H](CO)C(=O)N[C@@H](CCCCN)C(=O)O)[C@@H](C)O [peptide 213]
experimental cross-reactivity [1]: showed cross-reactivity

solubility, 1st round of solubility screening [2]: soluble
Visual inspection after 60 min pH 7 [2, 7]: tread +
Visual inspection after centrifugation pH 7 [2, 8]: +
solubility in all the test samples (concentrations and pH tested), all solubility tests [4]: good solubility
solubility in aqueous solutions and short-term stability [4]: sufficiently soluble
solubility [4]: acceptable solubility
Compound: AGELELQFRRVKSKYPEGTK-OH [peptide 207]
T cell response in % of the donors tested ([5]; single peptide): ~40%
solubility in aqueous solutions [2]: surprisingly good solubility in aqueous solutions
Cross-reactivity score, Cyn d ([3]; score 0 to 7): 0
Cross-reactivity score, Dac g ([3]; score 0 to 7): 3
Cross-reactivity score, Fes p ([3]; score 0 to 7): 6
Cross-reactivity score, Lol p ([3]; score 0 to 7): 6
Cross-reactivity score, Pas n ([3]; homologue from Pas n, score 0 to 7): 0.5
Cross-reactivity score, Pha a ([3]; score 0 to 7): 6
Cross-reactivity score, Poa p ([3]; score 0 to 7): 1
Cross-reactivity sum [3]: 22.5
Cross-reactivity/species [3]: 3.2

Compound: KDKWIELKESWGAIWRIDTP-OH [peptide 210]
experimental cross-reactivity [1]: showed cross-reactivity

Compound: TKKGNVWEVKSSKPLVGPFN-OH [peptide 219]
experimental cross-reactivity [1]: showed cross-reactivity

Compound: HGSEEWEPLTKKGNVWEVKS-OH [compound 218]
experimental cross-reactivity [1]: showed cross-reactivity

Compound: CC[C@H](C)[C@H](NC(=O)[C@H](C)NC(=O)[C@H](CCCCN)NC(=O)[C@@H](NC(=O)[C@H](CC(C)C)NC(=O)[C@H](C)NC(=O)[C@H](C)NC(=O)[C@H](CCC(=O)O)NC(=O)[C@H](Cc1ccccc1)NC(=O)[C@@H](NC(=O)[C@H](C)NC(=O)[C@H](Cc1ccc(O)cc1)NC(=O)[C@H](CCCCN)NC(=O)[C@@H](NC(=O)[C@H](CCC(=O)O)NC(=O)[C@@H]1CCCN1C(=O)[C@@H](N)CCCCN)C(C)C)C(C)C)[C@@H](C)O)C(=O)N[C@H](C(=O)O)[C@@H](C)O [peptide 142]
average relative magnitude ([5]; reference peptides of WO2010/089554, proliferation only): around 8
donor coverage, dose response of single peptides ([6]; 0.002 μg/ml, 25 donor derived T cell lines): ~35%
average relative magnitude calculated over all donors ([6]; single peptides, FIG. 21): in the same range
